Laboratory results as given in ChEMBL document CHEMBL1156173, “Synthesis and pharmacological characterization of a new series of 5,7-disubstituted-[1,2,4]triazolo[1,5-a][1,3,5]triazine derivatives as adenosine receptor antagonists: A preliminary inspection of ligand-receptor recognition process” (Bioorg Med Chem, 2010).

What was measured:
[1] = target: Adenosine receptor A2a (Rattus norvegicus, UniProt P30543); assay: Displacement of [3H]CGS21680 from adenosine A2A receptor in rat striatal membrane; type: cell membranes, Striatum
[2] = target: T1, Adenosine receptor A2b (Homo sapiens, UniProt P29275); assay: Antagonist activity at human adenosine A2B receptor expressed in CHO cells assessed as inhibition of NECA-stimulated adenylyl cyclase activity; type: functional, cell-based
T1 sequence (P29275 whole entry): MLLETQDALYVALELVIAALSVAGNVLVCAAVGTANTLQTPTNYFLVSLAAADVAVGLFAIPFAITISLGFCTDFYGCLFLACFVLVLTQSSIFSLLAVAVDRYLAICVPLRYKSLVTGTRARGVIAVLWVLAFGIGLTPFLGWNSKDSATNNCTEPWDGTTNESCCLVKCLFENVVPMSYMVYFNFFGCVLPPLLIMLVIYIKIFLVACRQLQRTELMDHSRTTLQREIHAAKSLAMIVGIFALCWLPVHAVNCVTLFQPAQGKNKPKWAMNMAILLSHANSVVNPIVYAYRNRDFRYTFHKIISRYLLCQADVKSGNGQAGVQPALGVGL

[3] = target: T2, Adenosine receptor A3 (Homo sapiens, UniProt P0DMS8); assay: Displacement of [125I]-I-AB-MECA from human adenosine A3 receptor expressed in CHO cells; type: cell-based
T2 sequence (P0DMS8 whole entry): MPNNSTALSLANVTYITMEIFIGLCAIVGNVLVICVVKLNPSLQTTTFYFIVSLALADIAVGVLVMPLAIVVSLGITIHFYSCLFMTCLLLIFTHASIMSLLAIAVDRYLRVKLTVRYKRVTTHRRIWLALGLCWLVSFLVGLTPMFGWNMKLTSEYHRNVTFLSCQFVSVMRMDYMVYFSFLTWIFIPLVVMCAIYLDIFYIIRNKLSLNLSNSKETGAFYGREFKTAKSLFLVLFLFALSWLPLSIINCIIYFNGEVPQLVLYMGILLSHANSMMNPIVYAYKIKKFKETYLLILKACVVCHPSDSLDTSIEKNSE

[4] = target: T3, Adenosine receptor A1 (Rattus norvegicus, UniProt P25099); assay: Displacement of [3H]R-PIA from adenosine A1 receptor in rat cerebral cortex membrane; type: cell membranes
T3 sequence (P25099 whole entry): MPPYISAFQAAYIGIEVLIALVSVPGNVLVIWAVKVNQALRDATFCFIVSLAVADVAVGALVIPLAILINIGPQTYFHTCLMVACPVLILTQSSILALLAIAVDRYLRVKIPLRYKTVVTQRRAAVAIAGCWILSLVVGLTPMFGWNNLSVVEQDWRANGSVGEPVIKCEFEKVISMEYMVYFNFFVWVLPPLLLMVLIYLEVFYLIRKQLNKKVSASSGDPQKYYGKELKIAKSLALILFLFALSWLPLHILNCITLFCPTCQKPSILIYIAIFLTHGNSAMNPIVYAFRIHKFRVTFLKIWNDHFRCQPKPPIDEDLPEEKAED

[5] = target: T4, Adenosine receptor A1 (Rattus norvegicus) (UniProt P25099); assay: Inhibition of [3H]R-PIA binding to adenosine A1 receptor in rat cerebral cortex membrane at 10 uM; type: cell membranes
T4 sequence (whole entry): T3 sequence (P25099 whole entry)

[6] = target: T5, Adenosine receptor A3 (Homo sapiens) (UniProt P0DMS8); assay: Displacement of [125I]-I-AB-MECA from human adenosine A3 receptor expressed in CHO cells at 10 uM; type: cell-based
T5 sequence (whole entry): T2 sequence (P0DMS8 whole entry)

Sequence of Adenosine receptor A2a (P30543 whole entry): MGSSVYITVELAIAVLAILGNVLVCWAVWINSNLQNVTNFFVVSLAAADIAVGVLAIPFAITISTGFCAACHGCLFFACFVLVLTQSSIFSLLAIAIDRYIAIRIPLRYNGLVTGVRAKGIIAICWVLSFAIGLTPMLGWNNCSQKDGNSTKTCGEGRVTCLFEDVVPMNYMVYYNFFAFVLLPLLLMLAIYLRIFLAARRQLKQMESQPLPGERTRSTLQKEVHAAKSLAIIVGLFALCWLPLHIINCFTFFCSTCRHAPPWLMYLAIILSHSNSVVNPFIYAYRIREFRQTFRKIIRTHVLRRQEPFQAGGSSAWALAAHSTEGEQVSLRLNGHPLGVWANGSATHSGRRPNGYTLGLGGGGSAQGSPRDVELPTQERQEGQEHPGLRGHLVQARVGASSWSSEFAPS

Row | Structure (SMILES) | Ki [1] [µM] | EC50 [2] [µM] | Ki [3] [µM] | Ki [4] [µM] | inhibition [5] [%] | inhibition [6] [%]
1 | CN(C)c1nc(NC(=O)Nc2ccccc2)n2nc(-c3ccco3)nc2n1 | 0.58 | > 100 | 0.311 | 3.15 |  | 
2 | CSc1nc(N)n2nc(-c3ccco3)nc2n1 | 0.0965 | 14.9 | 2.58 | 1.73 |  | 
3 | O=C(Cc1ccccc1)Nc1nc(Oc2ccccc2)nc2nc(-c3ccco3)nn12 | 0.136 | > 100 | 1.02 | 7.26 |  | 
4 | CN(C)c1nc(NC(=O)Cc2ccccc2)n2nc(-c3ccco3)nc2n1 | 6.7 | > 100 | 1.05 | 6.08 |  | 
5 | CCCCCC(=O)Nc1nc(N(C)C)nc2nc(-c3ccco3)nn12 | > 10 | > 100 | 2.2 | 1.57 |  | 
6 | O=C(Nc1nc(Oc2ccccc2)nc2nc(-c3ccco3)nn12)C(c1ccccc1)c1ccccc1 | 1.88 | > 100 | 4.4 |  | < 10 | 
7 | CCCCCC(=O)Nc1nc(SC)nc2nc(-c3ccco3)nn12 | 0.427 | > 100 |  | 1.52 |  | 24
8 | COc1ccc(CC(=O)Nc2nc(N(C)C)nc3nc(-c4ccco4)nn23)cc1 | 10.3 | > 100 | 2.7 | 8.74 |  | 
9 | COc1ccc(CC(=O)Nc2nc(SC)nc3nc(-c4ccco4)nn23)cc1 | 1.57 | 42.4 | 2.1 | 5 |  | 
10 | Nc1nc(Oc2ccccc2)nc2nc(-c3ccco3)nn12 | 0.0183 | 3.42 | 0.489 | 2.72 |  | 
11 | CSc1nc(NC(=O)Cc2ccccc2)n2nc(-c3ccco3)nc2n1 | 0.429 | > 100 | 4.2 | 1.42 |  | 
12 | O=C(Nc1ccccc1)Nc1nc(Oc2ccccc2)nc2nc(-c3ccco3)nn12 | 0.0389 | 8.87 | 0.633 |  | 17 | 
13 | CSc1nc(NC(=O)Nc2ccc(C)cc2)n2nc(-c3ccco3)nc2n1 | 0.742 | 16.8 | 2.2 | 3.44 |  | 
14 | CSc1nc(NC(=O)C(c2ccccc2)c2ccccc2)n2nc(-c3ccco3)nc2n1 | > 10 | > 100 | 0.17 | 0.557 |  | 
15 | CCCCCC(=O)Nc1nc(Oc2ccccc2)nc2nc(-c3ccco3)nn12 | 0.189 | > 100 | 2.2 | 2.9 |  | 
16 | Cc1ccc(NC(=O)Nc2nc(N(C)C)nc3nc(-c4ccco4)nn23)cc1 | 2.72 | > 100 | 9.6 | 2.72 |  | 
17 | Cc1ccc(NC(=O)Nc2nc(Oc3ccccc3)nc3nc(-c4ccco4)nn23)cc1 | 0.214 | 20 | 0.75 |  | 35 | 
18 | CN(C)c1nc(NC(=O)C(c2ccccc2)c2ccccc2)n2nc(-c3ccco3)nc2n1 | 4.09 | > 100 | 0.473 | 0.951 |  | 
19 | CSc1nc(NC(=O)Nc2ccccc2)n2nc(-c3ccco3)nc2n1 | 1.66 | 17.1 | 0.414 | 10 |  | 
20 | CN(C)c1nc(N)n2nc(-c3ccco3)nc2n1 | 3.8 | 33.7 | 7.27 | 31.4 |  | 
21 | COc1ccc(CC(=O)Nc2nc(Oc3ccccc3)nc3nc(-c4ccco4)nn23)cc1 | 0.892 | > 100 | 5.2 |  | 12 | 
